From the NIST ThermoML archive (doi:10.1021/je200757a)

Legend:
[1] = xn = mol fraction of the nth substance listed; details: for viscosity / mass density: 101 kPa, Liquid; for viscosity: Capillary tube (Ostwald / Ubbelohde) method; for mass density: Vibrating tube method
[2] = refractive index (Na D-line) (dimensionless); xn = mol fraction of the nth substance listed; details: 101 kPa, Liquid

C1C[C@@H]2[C@H]3CC[C@H](C3)[C@@H]2C1 [exo-tetrahydrodicyclopentadiene] + CCCCCCCCC
surface tension liquid-gas [mN/m], [1], Capillary rise
Details	x2 = 0	x2 = 0.1089	x2 = 0.2212	x2 = 0.3244	x2 = 0.4159	x2 = 0.5099	x2 = 0.6161	x2 = 0.7128	x2 = 0.8078	x2 = 0.9133
293.15 K	31.86	30.17	27.92	27.12	26.34	25.59	24.35	23.84	23.14	22.6
303.15 K	31.09	29.01	27.45	26.63	25.74	24.86	23.36	22.88	22.39	21.81

Details	mass density, 293.15 K [kg/m3]	mass density, 298.15 K [kg/m3]	mass density, 303.15 K [kg/m3]	mass density, 313.15 K [kg/m3]	refractive index, 293.15 K	refractive index, 303.15 K	viscosity, 293.15 K [mPa·s]	viscosity, 298.15 K [mPa·s]	viscosity, 303.15 K [mPa·s]	viscosity, 313.15 K [mPa·s]
[1], x2 = 0	935.3	931.4	927.5	919.6	–	–	3.077	2.784	2.525	2.112
[1], x2 = 0.1089	907.6	903.7	899.8	891.9	–	–	2.455	2.229	2.04	1.728
[1], x2 = 0.2212	880.1	876.2	872.3	864.4	–	–	2.005	1.836	1.687	1.441
[1], x2 = 0.3244	855.8	851.9	848	840.1	–	–	1.683	1.545	1.426	1.227
[1], x2 = 0.4159	835.1	831.2	827.2	819.4	–	–	1.459	1.344	1.244	1.077
[1], x2 = 0.5099	814.5	810.6	806.6	798.8	–	–	1.277	1.176	1.091	0.951
[1], x2 = 0.6161	792	788.1	784.2	776.3	–	–	1.109	1.028	0.958	0.839
[1], x2 = 0.7128	772.3	768.4	764.5	756.7	–	–	0.985	0.917	0.856	0.754
[1], x2 = 0.8078	753.7	749.8	745.9	738	–	–	0.887	0.827	0.775	0.686
[1], x2 = 0.9133	733.7	729.8	725.9	718.1	–	–	0.795	0.744	0.699	0.622
[2], x2 = 0	–	–	–	–	1.4877	1.4832	–	–	–	–
[2], x2 = 0.1089	–	–	–	–	1.4777	1.4728	–	–	–	–
[2], x2 = 0.2212	–	–	–	–	1.4667	1.4627	–	–	–	–
[2], x2 = 0.3244	–	–	–	–	1.457	1.4517	–	–	–	–
[2], x2 = 0.4159	–	–	–	–	1.45	1.445	–	–	–	–
[2], x2 = 0.5099	–	–	–	–	1.4422	1.4377	–	–	–	–
[2], x2 = 0.6161	–	–	–	–	1.4332	1.4282	–	–	–	–
[2], x2 = 0.7128	–	–	–	–	1.426	1.421	–	–	–	–
[2], x2 = 0.8078	–	–	–	–	1.4192	1.4139	–	–	–	–
[2], x2 = 0.9133	–	–	–	–	1.4114	1.4062	–	–	–	–

C1C[C@@H]2[C@H]3CC[C@H](C3)[C@@H]2C1 [exo-tetrahydrodicyclopentadiene] + CCCCCCCCCCCC
Details	mass density, [1] [kg/m3]	refractive index, [2]	surface tension liquid-gas, [1] [mN/m]	viscosity, [1] [mPa·s]
293.15 K, x2 = 0	935.3	1.4877	31.86	3.077
293.15 K, x2 = 0.0803	913	1.4796	30.13	2.796
293.15 K, x2 = 0.1712	889.9	1.4711	29.15	2.54
293.15 K, x2 = 0.2563	870	1.462	28.63	2.34
293.15 K, x2 = 0.3428	851.4	1.4573	27.95	2.169
293.15 K, x2 = 0.4443	831.4	1.4502	27.32	2.006
293.15 K, x2 = 0.5407	814.1	1.4448	26.32	1.881
293.15 K, x2 = 0.6527	795.7	1.4383	25.94	1.764
293.15 K, x2 = 0.7596	779.8	1.4325	25.67	1.672
293.15 K, x2 = 0.8855	762.7	1.4271	24.51	1.574
298.15 K, x2 = 0	931.4	–	–	2.784
298.15 K, x2 = 0.0803	909.1	–	–	2.535
298.15 K, x2 = 0.1712	886.1	–	–	2.307
298.15 K, x2 = 0.2563	866.2	–	–	2.127
298.15 K, x2 = 0.3428	847.7	–	–	1.974
298.15 K, x2 = 0.4443	827.7	–	–	1.827
298.15 K, x2 = 0.5407	810.4	–	–	1.715
298.15 K, x2 = 0.6527	792	–	–	1.61
298.15 K, x2 = 0.7596	776.1	–	–	1.526
298.15 K, x2 = 0.8855	759.1	–	–	1.438
303.15 K, x2 = 0	927.5	1.4832	31.09	2.525
303.15 K, x2 = 0.0803	905.2	1.4733	29.37	2.308
303.15 K, x2 = 0.1712	882.2	1.4657	28.51	2.104
303.15 K, x2 = 0.2563	862.4	1.4571	27.82	1.944
303.15 K, x2 = 0.3428	843.9	1.4524	26.77	1.807
303.15 K, x2 = 0.4443	824	1.4455	26.51	1.674
303.15 K, x2 = 0.5407	806.6	1.4396	25.84	1.572
303.15 K, x2 = 0.6527	788.3	1.4333	25.68	1.476
303.15 K, x2 = 0.7596	772.5	1.4279	24.58	1.4
303.15 K, x2 = 0.8855	755.5	1.4214	23.82	1.321
313.15 K, x2 = 0	919.6	–	–	2.112
313.15 K, x2 = 0.0803	897.4	–	–	1.939
313.15 K, x2 = 0.1712	874.5	–	–	1.775
313.15 K, x2 = 0.2563	854.7	–	–	1.644
313.15 K, x2 = 0.3428	836.2	–	–	1.532
313.15 K, x2 = 0.4443	816.4	–	–	1.422
313.15 K, x2 = 0.5407	799.2	–	–	1.337
313.15 K, x2 = 0.6527	780.9	–	–	1.257
313.15 K, x2 = 0.7596	765.1	–	–	1.193
313.15 K, x2 = 0.8855	748.1	–	–	1.128

C1C[C@@H]2[C@H]3CC[C@H](C3)[C@@H]2C1 [exo-tetrahydrodicyclopentadiene] + CCCCCCCCCCCCC
Details	mass density, [1] [kg/m3]	refractive index, [2]	surface tension liquid-gas, [1] [mN/m]	viscosity, [1] [mPa·s]
293.15 K, x2 = 0	935.3	1.4877	31.86	3.077
293.15 K, x2 = 0.0757	913.9	1.4795	30.4	2.88
293.15 K, x2 = 0.1546	893.5	1.4726	29.63	2.703
293.15 K, x2 = 0.2392	873.7	1.4662	28.55	2.552
293.15 K, x2 = 0.3284	854.6	1.4586	28.03	2.419
293.15 K, x2 = 0.4236	836.3	1.4528	27.19	2.302
293.15 K, x2 = 0.5258	818.7	1.4468	26.68	2.198
293.15 K, x2 = 0.632	802.3	1.4407	25.95	2.108
293.15 K, x2 = 0.7477	786.3	1.4349	25.54	2.028
293.15 K, x2 = 0.8665	771.5	1.4306	25.19	1.963
298.15 K, x2 = 0	931.4	–	–	2.784
298.15 K, x2 = 0.0757	910	–	–	2.609
298.15 K, x2 = 0.1546	889.7	–	–	2.448
298.15 K, x2 = 0.2392	869.9	–	–	2.311
298.15 K, x2 = 0.3284	850.9	–	–	2.189
298.15 K, x2 = 0.4236	832.6	–	–	2.082
298.15 K, x2 = 0.5258	815	–	–	1.992
298.15 K, x2 = 0.632	798.7	–	–	1.913
298.15 K, x2 = 0.7477	782.7	–	–	1.842
298.15 K, x2 = 0.8665	767.9	–	–	1.789
303.15 K, x2 = 0	927.5	1.4832	31.09	2.525
303.15 K, x2 = 0.0757	906.1	1.4743	29.94	2.37
303.15 K, x2 = 0.1546	885.9	1.4683	28.98	2.233
303.15 K, x2 = 0.2392	866.1	1.4614	28.38	2.112
303.15 K, x2 = 0.3284	847.1	1.4541	27.21	2
303.15 K, x2 = 0.4236	828.9	1.4483	26.74	1.904
303.15 K, x2 = 0.5258	811.3	1.442	25.72	1.822
303.15 K, x2 = 0.632	795	1.4357	25.38	1.748
303.15 K, x2 = 0.7477	779	1.4305	24.83	1.689
303.15 K, x2 = 0.8665	764.3	1.4258	24.5	1.631
313.15 K, x2 = 0	919.6	–	–	2.112
313.15 K, x2 = 0.0757	898.4	–	–	1.975
313.15 K, x2 = 0.1546	878.2	–	–	1.86
313.15 K, x2 = 0.2392	858.4	–	–	1.759
313.15 K, x2 = 0.3284	839.5	–	–	1.669
313.15 K, x2 = 0.4236	821.4	–	–	1.587
313.15 K, x2 = 0.5258	803.9	–	–	1.521
313.15 K, x2 = 0.632	787.7	–	–	1.466
313.15 K, x2 = 0.7477	771.8	–	–	1.416
313.15 K, x2 = 0.8665	757	–	–	1.369
